From PubChem BioAssay AID1259408 (Genetic Toxicology Data Bank (GENE-TOX), 2018) come the findings set out here.

The data set concerns GENE-TOX genotoxicity assays, various organisms and cells. In words: GENE-TOX mutagenicity studies. The conditions noted are these: for call: Assay Type: In vivo carcinogenicity studies.
Setting [1] is: Species/Cell Type: Mammalian polychromatic erythrocytes, Assay Type: Micronucleus test, chromosome aberrations, Assay Code: MNTT, Evaluation Type: Evaluation A (Pre-1980).
[2] abbreviates: Species/Cell Type: Human lymphocytes, Assay Type: Sister-chromatid exchange (SCE) in vitro, Assay Code: SCLT, Evaluation Type: Evaluation B (Post-1980).
Where [3] appears, read: Species/Cell Type: Human, Assay Type: Sister-chromatid exchange (SCE) in vitro, Assay Code: SC1T, Evaluation Type: Evaluation B (Post-1980).
The mark [4] stands for this setting: Species/Cell Type: Drosophila melanogaster, Assay Type: Sex-linked recessive lethal gene mutation, Assay Code: SRLT, Evaluation Type: Evaluation A (Pre-1980).
Setting [5] is: Species/Cell Type: Saccharomyces cerevisiae, Assay Type: Mitotic recombination or gene conversion, Assay Code: YEH-, Evaluation Type: Evaluation A (Pre-1980).
Where [6] appears, read: Species/Cell Type: Escherichia coli polA (W3119 vs P3478), Assay Type: Rec-assay, DNA effects (bacterial DNA repair), Assay Code: RE1T, Evaluation Type: Evaluation A (Pre-1980).
Setting [7] is: Species/Cell Type: Mammalian polychromatic erythrocytes, Assay Type: Micronucleus test, chromosome aberrations, Assay Code: MNT-, Evaluation Type: Evaluation B (Post-1980).
Where [8] appears, read: Species/Cell Type: Chinese hamster lung (V79) cells, Assay Type: Forward gene mutation at the HPRT or ouabain locus, Assay Code: V79+, Evaluation Type: Evaluation A (Pre-1980).
Setting [9] is: Species/Cell Type: Glycine max (soybean), Assay Type: Gene mutation, Assay Code: GLM-, Evaluation Type: Evaluation A (Pre-1980).
The mark [10] stands for this setting: Species/Cell Type: Nonhuman, Assay Code: CCG+L, Evaluation Type: Evaluation A (Pre-1980).
The mark [11] stands for this setting: Species/Cell Type: Saccharomyces cerevisiae, Assay Type: Mitotic recombination or gene conversion, Assay Code: YEC+, Evaluation Type: Evaluation A (Pre-1980).
[12] abbreviates: Species/Cell Type: Salmonella typhimurium (one or more of the five standard strains: TA98, TA100, TA1535, TA1537, and TA1538), Assay Type: Histidine reverse gene mutation, Ames assay, Assay Code: SALT, Evaluation Type: Evaluation A (Pre-1980).
[13] abbreviates: Species/Cell Type: Escherichia coli polA (W3119 vs P3478), Assay Type: Rec-assay, DNA effects (bacterial DNA repair), Assay Code: RE1+, Evaluation Type: Evaluation A (Pre-1980).

Molecules are shown by their SMILES. Activity calls are given as the source filed them. The rule behind the calls is not given here.

For `Oc1ccc(Cl)c(O)c1`, the mutagenic call is, setting by setting: under setting [1], “no conclusion”; (Species/Cell Type: Neurospora crassa, Assay Type: Aneuploidy, chromosome aberrations, Assay Code: NEN-, Evaluation Type: Evaluation A (Pre-1980)) “inactive; negative”.
For `Cc1c(C)c2c(c(C)c1O)CCC(C)(CCCC(C)CCCC(C)CCCC(C)C)O2` (stereo unspecified), the mutagenic call under setting [2] was “no conclusion” and the mutagenic call under setting [3] is “no conclusion”.
Take `C[CH2][Pb]([Cl])([CH2]C)[CH2]C`: the mutagenic call reads like this: (Species/Cell Type: Drosophila melanogaster, Assay Type: Aneuploidy, sex chromosome gain, chromosome aberrations, Assay Code: DAG-M, Evaluation Type: Evaluation A (Pre-1980)) “inactive; negative”; (Species/Cell Type: Drosophila melanogaster, Assay Type: Aneuploidy, whole sex chromosome loss, chromosome aberrations, Assay Code: DAC+M, Evaluation Type: Evaluation A (Pre-1980)) “active; positive”.
As for `C/C=C1/C[C@@H](C)[C@](O)(CO)C(=O)OCC2=CC[N+]3([O-])CC[C@@H](OC1=O)[C@@H]23` (stereo partly specified), under setting [4], the mutagenic call is recorded as “no conclusion”.
In the case of `C1=CC2C3C=CC(C3)C2C1` (stereo unspecified), the mutagenic call is “inactive; negative” under setting [5]; “inactive; negative” (Species/Cell Type: Salmonella typhimurium (one or more of the five standard strains: TA98, TA100, TA1535, TA1537, and TA1538), Assay Type: Histidine reverse gene mutation, Ames assay, Assay Code: SAL-, Evaluation Type: Evaluation A (Pre-1980)).
As for `CS(=O)(=O)O`, the mutagenic call is listed as “no conclusion” under setting [4] and “no conclusion” under setting [6].
Take `CCNNCC`: where the note is “Species/Cell Type: Nonhuman, Assay Code: CCG+, Evaluation Type: Evaluation A (Pre-1980)”, the call is “active; positive”.
Take `Cn1c(N)nc2c3cccnc3ccc21`: the mutagenic call runs as follows: (Species/Cell Type: Chinese hamster ovary (CHO) cells, Assay Type: Forward gene mutation at the HPRT locus, Assay Code: CHOT, Evaluation Type: Evaluation B (Post-1980)) “no conclusion”; under setting [7], “inactive; negative”; (Species/Cell Type: Nonhuman, Assay Type: Sister-chromatid exchange (SCE) in vitro, Assay Code: SC2+D*, Activation: With metabolic activation, Dose Response: With dose response, Evaluation Type: Evaluation B (Post-1980)) “active; positive”; (Species/Cell Type: Nonhuman, Assay Type: Sister-chromatid exchange (SCE) in vivo, Assay Code: SC3+, Evaluation Type: Evaluation B (Post-1980)) “active; positive”.
As to `C[C@@H]1O[C@@H](OC[C@H]2O[C@@H](Oc3c(-c4ccc(OCCO)c(OCCO)c4)oc4cc(OCCO)cc(O)c4c3=O)[C@H](O)[C@@H](O)[C@@H]2O)[C@H](O)[C@H](O)[C@H]1O`, the mutagenic call under setting [7] was “inactive; negative”.
As to `CC(=O)OC(c1ccccc1)N(C)N=O` (stereo unspecified), the mutagenic call (Species/Cell Type: Salmonella typhimurium (one or more of the five standard strains: TA98, TA100, TA1535, TA1537, and TA1538), Assay Type: Histidine reverse gene mutation, Ames assay, Assay Code: SAL+, Evaluation Type: Evaluation A (Pre-1980)) was “active; positive”.
`Cc1cn([C@H]2C[C@H](O)[C@@H](CO)O2)c(=O)[nH]c1=O`: the mutagenic call was “active; positive” under setting [8]; “inactive; negative” under setting [9]; “no conclusion” under setting [2]; “no conclusion” under setting [3]; “inactive; negative” (Species/Cell Type: Mouse (C3H/10T1/2) cells, Assay Type: Cell transformation, Assay Code: CTH-, Evaluation Type: Evaluation A (Pre-1980)); “active; positive” (Species/Cell Type: Nonhuman, Assay Type: Sister-chromatid exchange (SCE) in vitro, Assay Code: SC2+D, Dose Response: With dose response, Evaluation Type: Evaluation B (Post-1980)). The call (Species/Cell Type: Nonhuman, Assay Code: CCGT, Evaluation Type: Evaluation A (Pre-1980)) was “no conclusion”.
Regarding `Cc1cc2c(c3ccc4ccccc4c13)C(=O)CC2`, the mutagenic call (Species/Cell Type: Salmonella typhimurium (one or more of the five standard strains: TA98, TA100, TA1535, TA1537, and TA1538), Assay Type: Histidine reverse gene mutation, Ames assay, Assay Code: SAL+*, Activation: With metabolic activation, Evaluation Type: Evaluation A (Pre-1980)) is “active; positive”.
Turning to `ClC1=C(Cl)C2(Cl)C3C(Cl)C(Cl)CC3C1(Cl)C2(Cl)Cl` (stereo unspecified), the mutagenic call is, setting by setting: under setting [8], “active; positive”; (Species/Cell Type: Rodents, Sex: Male, Assay Type: Dominant lethal test, Assay Code: DLTT, Evaluation Type: Evaluation A (Pre-1980)) “no conclusion”; (Species/Cell Type: Zea mays (corn), Assay Type: Gene mutation, Assay Code: ZEM+, Evaluation Type: Evaluation A (Pre-1980)) “active; positive”. Further, under setting [10], the call is “active; positive”.
In the case of `O=[N+]([O-])C1c2ccccc2-c2ccccc21`, the mutagenic call (Species/Cell Type: Escherichia coli WP2 UVRA, Assay Type: Tryptophan reverse gene mutation, Assay Code: WPU+, Evaluation Type: Evaluation A (Pre-1980)) was “active; positive”.
For `CN(C)N=Nc1cccnc1`, the mutagenic call reads like this: (Species/Cell Type: Drosophila melanogaster, Assay Type: Sex-linked recessive lethal gene mutation, Assay Code: SRL+, Evaluation Type: Evaluation A (Pre-1980)) “active; positive”; (Species/Cell Type: Mammalian polychromatic erythrocytes, Assay Type: Micronucleus test, chromosome aberrations, Assay Code: MNT+, Evaluation Type: Evaluation A (Pre-1980)) “active; positive”; (Species/Cell Type: Saccharomyces cerevisiae, Assay Type: Forward and reverse gene mutation, mitotic recombination and gene conversion, host-mediated assay, Assay Code: HME+, Evaluation Type: Evaluation A (Pre-1980)) “active; positive”; under setting [11], “active; positive”.
With `O=C1CCCO1`, the mutagenic call reads like this: under setting [1], “no conclusion”; (Species/Cell Type: Mouse, Sex: Male, Assay Type: Sperm morphology, Assay Code: SPI-, Evaluation Type: Evaluation A (Pre-1980)) “inactive; negative”; (Species/Cell Type: Nonhuman, Assay Type: Sister-chromatid exchange (SCE) in vitro, Assay Code: SC2+, Evaluation Type: Evaluation B (Post-1980)) “active; positive”.
On to `CCN(CC)CCOC(=O)c1ccc(N)cc1`, for which the mutagenic call runs as follows: under setting [6], “no conclusion”; under setting [12], “no conclusion”.
As to `ClC(Cl)C(Cl)Cl`, the mutagenic call is “active; positive” under setting [13]; “active; positive” under setting [11]; “active; positive” (Species/Cell Type: Saccharomyces cerevisiae, Assay Type: Mitotic recombination or gene conversion, Assay Code: YEH+, Evaluation Type: Evaluation A (Pre-1980)); “active; positive” (Species/Cell Type: Saccharomyces cerevisiae, Assay Type: Reverse gene mutation, Assay Code: YER+, Evaluation Type: Evaluation A (Pre-1980)). The call under setting [10] was “active; positive”.
In the case of `N#CS`, the mutagenic call is “inactive; negative” under setting [9] and “no conclusion” under setting [12].
As to `CC(C)=CC1C(C(=O)O)C1(C)C` (stereo unspecified), the mutagenic call is “inactive; negative” (Species/Cell Type: Human diploid fibroblasts, Assay Type: Unscheduled DNA synthesis (UDS) in vitro, DNA effects, Assay Code: UDH-, Evaluation Type: Evaluation A (Pre-1980)) and “inactive; negative” under setting [5].
Turning to `Cc1cc(=O)oc2cc(O)ccc12`, the mutagenic call (Species/Cell Type: Allium cepa, Assay Type: Chromosome aberrations, Assay Code: ALC+, Evaluation Type: Evaluation A (Pre-1980)) was “active; positive”.
In the case of `CC1(C)[C@@H](O[C@H]2O[C@H](C(=O)O)[C@@H](O)[C@H](O)[C@H]2O[C@@H]2O[C@H](C(=O)O)[C@@H](O)[C@H](O)[C@H]2O)CC[C@]2(C)[C@H]3C(=O)C=C4[C@@H]5C[C@@](C)(C(=O)O)CC[C@]5(C)CC[C@@]4(C)[C@]3(C)CC[C@@H]12`, under setting [3], the mutagenic call is on record as “no conclusion”.
For the compound `NCC[C@H](O)C(=O)N[C@@H]1C[C@H](N)[C@@H](O[C@H]2O[C@H](CN)[C@@H](O)[C@H](O)[C@H]2O)[C@H](O)[C@H]1O[C@H]1O[C@H](CO)[C@@H](O)[C@H](N)[C@H]1O`, the mutagenic call under setting [5] was “inactive; negative”.
`O=CCBr`: under setting [13], the mutagenic call is “active; positive”.
For the compound `Cc1c2ccccc2c(C)c2c3c(ccc12)[C@H](O)[C@@H](O)C=C3`, the mutagenic call is “active; positive” under setting [8] and “active; positive” (Species/Cell Type: Mouse prostate cells, Assay Type: Cell transformation, Assay Code: CTM+, Evaluation Type: Evaluation A (Pre-1980)). The call under setting [10] is “active; positive”.
Turning to `CN(CCCCCC(=O)OC[C@H](N)C(=O)O)N=O`, the mutagenic call was “no conclusion” (Species/Cell Type: Escherichia coli polA (W3110 vs P3478), Assay Type: Rec-assay, DNA effects (bacterial DNA repair), Assay Code: RE2T, Evaluation Type: Evaluation A (Pre-1980)) and “no conclusion” under setting [6].
Consider `O=S(=O)(Cl)c1cccc2cccnc12`, for which the mutagenic call under setting [12] is listed as “no conclusion”.
For the compound `Nc1ccc2nc3ccccn3c2n1`, the mutagenic call (Species/Cell Type: Human lymphocytes, Assay Type: Sister-chromatid exchange (SCE) in vitro, Assay Code: SCL+D, Dose Response: With dose response, Evaluation Type: Evaluation B (Post-1980)) is “active; positive” and the mutagenic call (Species/Cell Type: Human, Assay Type: Sister-chromatid exchange (SCE) in vitro, Assay Code: SC1+D, Dose Response: With dose response, Evaluation Type: Evaluation B (Post-1980)) is “active; positive”.
